What was measured:
[1] = test system: Alpha hemolytic streptococci; experiment: Sensitivity panel on organism isolated from mare endometrium; format: cell-based; conditions: isolate from endometrium of 16 year old Quarter Horse mare
Excerpt: (§1) The microscopic findings from the lab were described as mild to moderate diffuse acute superficial […], Grade IIA endometrium. The lab also isolated Escherichia coli and Alpha-hemolytic streptococci. The sensitivity panel yielded the results in Table 1.

Escherichia coli = experiment: as above; format: cell-based; conditions: isolate from endometrium of 16 year old Quarter Horse mare
Excerpt: as §1

Compound	Sensitivity Panel, Alpha hemolytic streptococci organism isolated [1]	Sensitivity Panel, Escherichia coli Organism Isolated (Escherichia coli)
NCC[C@H](O)C(=O)N[C@@H]1C[C@H](N)[C@@H](O[C@H]2O[C@H](CN)[C@@H](O)[C@H](O)[C@H]2O)[C@H](O)[C@H]1O[C@H]1O[C@H](CO)[C@@H](O)[C@H](N)[C@H]1O [Amikacin]	Resistant	Sensitive
CC1(C)S[C@@H]2[C@H](NC(=O)[C@H](N)c3ccccc3)C(=O)N2[C@H]1C(=O)O [Ampicillin]	Sensitive	Intermediate
Cc1nnc(SCC2=C(C(=O)O)N3C(=O)[C@@H](NC(=O)Cn4cnnn4)[C@H]3SC2)s1 [Cefazolin]	Sensitive	Sensitive
CO/N=C(\C(=O)N[C@@H]1C(=O)N2C(C(=O)O)=C(CSC(=O)c3ccco3)CS[C@H]12)c1csc(N)n1 [Ceftiofur]	Sensitive	Sensitive
CCN1CCN(c2cc3c(cc2F)c(=O)c(C(=O)O)cn3C2CC2)CC1 [Enrofloxacin]	Sensitive	Sensitive
CC[C@H]1OC(=O)[C@H](C)[C@@H](O[C@H]2C[C@@](C)(OC)[C@@H](O)[C@H](C)O2)[C@H](C)[C@@H](O[C@@H]2O[C@H](C)C[C@H](N(C)C)[C@H]2O)[C@](C)(O)C[C@@H](C)C(=O)[C@H](C)[C@@H](O)[C@]1(C)O [Erythromycin]	Sensitive	
CS(=O)(=O)c1ccc([C@@H](O)[C@@H](CF)NC(=O)C(Cl)Cl)cc1 [Florfenicol]		Sensitive
CO[C@H]1/C=C/O[C@@]2(C)Oc3c(C)c(O)c4c(O)c(c(/C=N/N5CCN(C)CC5)c(O)c4c3C2=O)NC(=O)/C(C)=C\C=C\[C@H](C)[C@H](O)[C@@H](C)[C@@H](O)[C@@H](C)[C@H](OC(C)=O)[C@@H]1C [Rifampin]	Sensitive	
CC1(C)S[C@@H]2[C@H](NC(=O)[C@H](C(=O)O)c3ccsc3)C(=O)N2[C@H]1C(=O)O [Ticarcillin]	Sensitive	Sensitive
Gentamicin	Resistant	Sensitive
TMP/Sulfa	Sensitive	Resistant
Trimmicosin		Intermediate
